The values below come from BindingDB's records for doi:10.1124/jpet.102.046128 (Bristol-Myers Squibb Pharmaceuticals Research Institute, 2003).

Where “and” joins values, the source holds several entries; their conditions need not be identical. Identical values can stand only once.

The experiment deals with T1, Corticotropin-releasing factor receptor 1 (Homo sapiens, UniProt P34998).
T1 sequence (P34998 whole entry): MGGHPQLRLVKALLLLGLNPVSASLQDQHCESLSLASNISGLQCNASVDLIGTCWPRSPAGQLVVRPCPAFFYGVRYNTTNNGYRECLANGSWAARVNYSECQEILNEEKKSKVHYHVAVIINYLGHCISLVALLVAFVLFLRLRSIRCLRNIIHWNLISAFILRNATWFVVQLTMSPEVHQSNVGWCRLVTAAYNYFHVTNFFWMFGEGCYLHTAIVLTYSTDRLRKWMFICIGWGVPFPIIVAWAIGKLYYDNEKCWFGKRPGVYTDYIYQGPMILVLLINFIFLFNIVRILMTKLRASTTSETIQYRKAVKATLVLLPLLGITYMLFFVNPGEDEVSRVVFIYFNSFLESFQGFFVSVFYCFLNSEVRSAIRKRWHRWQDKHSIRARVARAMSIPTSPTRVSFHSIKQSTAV
A word on the Ki: it is the dissociation constant of the complex between target and ligand, obtained from inhibition or displacement. `CCCCN(CC)c1nc(C)nc2c1c(C)cn2-c1c(C)cc(C)cc1C`: the Ki is 1.2 nM and 0.4 nM.
In the case of “H-DLTFHLLREMLEMAKAEQEAEQAALNRLLLEEA-NH2 [NSC_0]” it was more than 1000 nM.
The result for `CCC(CC)Nc1cc(C)nc2c(-c3ccc(OC)cc3C)c(C)nn12` reads 0.4 nM; that for `CCC(COC)n1nnc2c(Nc3ccc(OC)cc3C)nc(C)cc21` (stereo unspecified), 6.8 nM and 4.9 nM.
For `COCC(COC)Nc1nc(C)nc2c(-c3ccc(Cl)cc3Cl)c(C)nn12` [DMP696], the affinity, expressed as Ki, was 2.8 nM.
In the case of `CC[C@H](C)[C@H](NC(=O)[C@H](CC(=O)O)NC(=O)[C@H](CC(C)C)NC(=O)[C@H](CC(C)C)NC(=O)[C@H](CCCCN)NC(=O)[C@H](CCCN=C(N)N)NC(=O)[C@H](CC(N)=O)NC(=O)[C@H](CO)NC(=O)[C@H](Cc1cnc[nH]1)NC(=O)[C@H](C)NC(=O)[C@H](CCC(N)=O)NC(=O)[C@H](CCC(N)=O)NC(=O)[C@H](C)NC(=O)[C@H](CC(C)C)NC(=O)[C@H](CCC(N)=O)NC(=O)[C@H](CC(=O)O)NC(=O)[C@H](C)NC(=O)[C@H](CCCCN)NC(=O)[C@@H](NC(=O)[C@H](CCSC)NC(=O)[C@H](CCC(=O)O)NC(=O)[C@H](CC(C)C)NC(=O)[C@@H](NC(=O)[C@H](CCC(=O)O)NC(=O)[C@H](CCCN=C(N)N)NC(=O)[C@H](CC(C)C)NC(=O)[C@H](CC(C)C)NC(=O)[C@H](Cc1cnc[nH]1)NC(=O)[C@H](Cc1ccccc1)NC(=O)[C@@H](NC(=O)[C@H](CC(C)C)NC(=O)[C@H](CC(=O)O)NC(=O)[C@H](CC(C)C)NC(=O)[C@H](CO)NC(=O)[C@@H](NC(=O)[C@@H]1CCCN1C(=O)[C@@H]1CCCN1C(=O)[C@H](CCC(=O)O)NC(=O)[C@H](CCC(N)=O)NC(=O)[C@@H](N)CO)[C@@H](C)CC)[C@@H](C)O)C(C)C)[C@@H](C)O)C(=O)N[C@@H](C)C(N)=O` [NSC_0] it was 3.3 nM and 23.1 nM.
